Test results from US12617779B2, “Self degradation-type CDK9 inhibitor prodrug and liposome encapsulating same” (Sumitomo Pharma Co., Ltd., priority 2021, dated 2026).

Test: Evaluation of conversion rate to active form in buffer solution (Experimental Example 1)
Format: physicochemical
Conditions: for Production rate of Alvocidib / Residual rate: 37° C., 25 umol/L in buffer solution; for Stability in buffer solution at pH 5: pH 5, 37° C., up to 2 or 3 hours; for Conversion to Alvocidib at pH 7.4: pH 7.4, 37° C., up to 3 hours
In short: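 Compounds at 25 umol/L were held at 37 °C in 50 mM citrate (pH 5.0, 5.5) or phosphate (pH 6.0–7.4) buffers. Remaining compound and Alvocidib formed were quantified by HPLC at 0, 0.5, 1, 2 and 3 h.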

CCN(C[C@H]1CCCCN1)C(=O)Oc1cc(O)c2c(=O)cc(-c3ccccc3Cl)oc2c1[C@H]1CCN(C)C[C@H]1O [Example 2, 2-(2-chlorophenyl)-5-hydroxy-8-[(3S,4R)-3-hydroxy-1-methylpiperidin-4-yl]-4-oxo-4H-1-benzopyran-7-yl ethyl{[(2R)-piperidin-2-yl]methyl}carbamate]
Production rate of Alvocidib (pH5.0, 0 hr): 0.0%
Residual rate (pH5.0, 0 hr): 95.5%
Stability in buffer solution at pH 5: stable
Production rate of Alvocidib (pH5.0, 0.5 hr): 0.3%
Residual rate (pH5.0, 0.5 hr): 95.4%
Production rate of Alvocidib (pH5.0, 1 hr): 0.5%
Residual rate (pH5.0, 1 hr): 95.1%
Production rate of Alvocidib (pH5.0, 2 hr): 1.1%
Residual rate (pH5.0, 2 hr): 94.7%
Production rate of Alvocidib (pH5.0, 3 hr): 1.6%
Residual rate (pH5.0, 3 hr): 94.1%
Production rate of Alvocidib (pH5.5, 0 hr): 0.0%
Residual rate (pH5.5, 0 hr): 95.8%
Production rate of Alvocidib (pH5.5, 0.5 hr): 0.8%
Residual rate (pH5.5, 0.5 hr): 95.1%
Production rate of Alvocidib (pH5.5, 1 hr): 1.7%
Residual rate (pH5.5, 1 hr): 94.3%
Production rate of Alvocidib (pH5.5, 2 hr): 3.2%
Residual rate (pH5.5, 2 hr): 92.5%
Production rate of Alvocidib (pH5.5, 3 hr): 5.3%
Residual rate (pH5.5, 3 hr): 90.4%
Production rate of Alvocidib (pH6.0, 0 hr): 0.0%
Residual rate (pH6.0, 0 hr): 95.5%
Production rate of Alvocidib (pH6.0, 0.5 hr): 2.9%
Residual rate (pH6.0, 0.5 hr): 93.0%
Production rate of Alvocidib (pH6.0, 1 hr): 5.7%
Residual rate (pH6.0, 1 hr): 89.6%
Production rate of Alvocidib (pH6.0, 2 hr): 11.1%
Residual rate (pH6.0, 2 hr): 81.0%
Production rate of Alvocidib (pH6.0, 3 hr): 15.7%
Residual rate (pH6.0, 3 hr): 74.5%
Production rate of Alvocidib (pH6.5, 0 hr): 0.0%
Residual rate (pH6.5, 0 hr): 95.9%
Production rate of Alvocidib (pH6.5, 0.5 hr): 7.9%
Residual rate (pH6.5, 0.5 hr): 87.4%
Production rate of Alvocidib (pH6.5, 1 hr): 15.1%
Residual rate (pH6.5, 1 hr): 75.4%
Production rate of Alvocidib (pH6.5, 2 hr): 27.2%
Residual rate (pH6.5, 2 hr): 57.4%
Production rate of Alvocidib (pH6.5, 3 hr): 36.1%
Residual rate (pH6.5, 3 hr): 45.1%
Production rate of Alvocidib (pH7.0, 0 hr): 0.0%
Residual rate (pH7.0, 0 hr): 95.4%
Production rate of Alvocidib (pH7.0, 0.5 hr): 21.0%
Residual rate (pH7.0, 0.5 hr): 66.7%
Production rate of Alvocidib (pH7.0, 1 hr): 38.0%
Residual rate (pH7.0, 1 hr): 44.8%
Production rate of Alvocidib (pH7.0, 2 hr): 53.4%
Residual rate (pH7.0, 2 hr): 19.9%
Production rate of Alvocidib (pH7.0, 3 hr): 60.8%
Residual rate (pH7.0, 3 hr): 9.8%
Production rate of Alvocidib (pH7.4, 0 hr): 0.2%
Residual rate (pH7.4, 0 hr): 95.4%
Conversion to Alvocidib at pH 7.4: rapidly converted to Alvocidib
Production rate of Alvocidib (pH7.4, 0.5 hr): 38.7%
Residual rate (pH7.4, 0.5 hr): 41.7%
Production rate of Alvocidib (pH7.4, 1 hr): 56.4%
Residual rate (pH7.4, 1 hr): 17.1%
Production rate of Alvocidib (pH7.4, 2 hr): 66.0%
Residual rate (pH7.4, 2 hr): 3.5%
Production rate of Alvocidib (pH7.4, 3 hr): 67.6%
Residual rate (pH7.4, 3 hr): 1.5%

CN1CC[C@H](c2c(OC(=O)N(C)C[C@@H]3CCCCN3)cc(O)c3c(=O)cc(-c4ccccc4Cl)oc23)[C@H](O)C1 [Example 3, 2-(2-chlorophenyl)-5-hydroxy-8-[(3S,4R)-3-hydroxy-1-methylpiperidin-4-yl]-4-oxo-4H-1-benzopyran-7-yl methyl{[(2S)-piperidin-2-yl]methyl}carbamate]
Production rate of Alvocidib (pH5.0, 0 hr): 0.2%
Residual rate (pH5.0, 0 hr): 99.8%
Stability in buffer solution at pH 5: stable
Production rate of Alvocidib (pH5.0, 0.5 hr): 0.9%
Residual rate (pH5.0, 0.5 hr): 99.1%
Production rate of Alvocidib (pH5.0, 1 hr): 1.3%
Residual rate (pH5.0, 1 hr): 98.7%
Production rate of Alvocidib (pH5.0, 2 hr): 2.2%
Residual rate (pH5.0, 2 hr): 97.8%
Production rate of Alvocidib (pH5.0, 3 hr): 3.1%
Residual rate (pH5.0, 3 hr): 96.9%
Production rate of Alvocidib (pH5.5, 0 hr): 0.3%
Residual rate (pH5.5, 0 hr): 99.7%
Production rate of Alvocidib (pH5.5, 0.5 hr): 1.8%
Residual rate (pH5.5, 0.5 hr): 98.2%
Production rate of Alvocidib (pH5.5, 1 hr): 2.7%
Residual rate (pH5.5, 1 hr): 97.3%
Production rate of Alvocidib (pH5.5, 2 hr): 4.7%
Residual rate (pH5.5, 2 hr): 95.3%
Production rate of Alvocidib (pH5.5, 3 hr): 6.5%
Residual rate (pH5.5, 3 hr): 93.5%
Production rate of Alvocidib (pH6.0, 0 hr): 0.3%
Residual rate (pH6.0, 0 hr): 99.7%
Production rate of Alvocidib (pH6.0, 0.5 hr): 4.5%
Residual rate (pH6.0, 0.5 hr): 95.5%
Production rate of Alvocidib (pH6.0, 1 hr): 7.6%
Residual rate (pH6.0, 1 hr): 92.2%
Production rate of Alvocidib (pH6.0, 2 hr): 14.1%
Residual rate (pH6.0, 2 hr): 85.3%
Production rate of Alvocidib (pH6.0, 3 hr): 19.8%
Residual rate (pH6.0, 3 hr): 79.4%
Production rate of Alvocidib (pH6.5, 0 hr): 0.3%
Residual rate (pH6.5, 0 hr): 99.7%
Production rate of Alvocidib (pH6.5, 0.5 hr): 10.6%
Residual rate (pH6.5, 0.5 hr): 88.9%
Production rate of Alvocidib (pH6.5, 1 hr): 18.3%
Residual rate (pH6.5, 1 hr): 80.9%
Production rate of Alvocidib (pH6.5, 2 hr): 33.5%
Residual rate (pH6.5, 2 hr): 65.3%
Production rate of Alvocidib (pH6.5, 3 hr): 44.6%
Residual rate (pH6.5, 3 hr): 53.9%
Production rate of Alvocidib (pH7.0, 0 hr): 0.6%
Residual rate (pH7.0, 0 hr): 99.4%
Production rate of Alvocidib (pH7.0, 0.5 hr): 26.8%
Residual rate (pH7.0, 0.5 hr): 72.2%
Production rate of Alvocidib (pH7.0, 1 hr): 43.2%
Residual rate (pH7.0, 1 hr): 55.3%
Production rate of Alvocidib (pH7.0, 2 hr): 65.2%
Residual rate (pH7.0, 2 hr): 20.2%
Production rate of Alvocidib (pH7.0, 3 hr): 74.5%
Residual rate (pH7.0, 3 hr): 8.0%
Production rate of Alvocidib (pH7.4, 0 hr): 0.9%
Residual rate (pH7.4, 0 hr): 99.1%
Conversion to Alvocidib at pH 7.4: rapidly converted to Alvocidib
Production rate of Alvocidib (pH7.4, 0.5 hr): 49.0%
Residual rate (pH7.4, 0.5 hr): 49.4%
Production rate of Alvocidib (pH7.4, 1 hr): 67.8%
Residual rate (pH7.4, 1 hr): 17.0%
Production rate of Alvocidib (pH7.4, 2 hr): 80.4%
Residual rate (pH7.4, 2 hr): 0.0%
Production rate of Alvocidib (pH7.4, 3 hr): 82.5%
Residual rate (pH7.4, 3 hr): 0.0%
